Results on 20 compounds are retold here after PMC12444550, “Design, Synthesis, and Trypanosomicidal Evaluation of Eugenol-Based Azole Hybrids: Discovery of an In Vitro Active and Selective Compound” (ACS Omega, 2025).

Structures are written as SMILES. Read-outs that look alike come from different tables or passages of the source.

The nature of series [1]: Cell viability assay (resazurin), Vero cells. The class given is cell-based. The note with it: African green monkey, Vero cells; resazurin method; 48 h incubation; read-out: Cytotoxicity CC50 Vero. The procedure:
(§1) Vero and H9c2 cells (2 × 10^3 cells/well) were seeded in 96-well plates in Dulbecco’s modified Eagle’s medium (DMEM) supplemented with 5% fetal bovine serum (FBS) and incubated for 24 h at 37 °C in a humidified atmosphere with 5% CO2. After incubation, the medium was replaced with fresh DMEM + 5% FBS containing serial dilutions of each hybrid compound (1400 to 175 μmol·L^–1). Cells were exposed to the compounds for 48 h. Four wells with untreated cells served as a positive control. Additionally, eight wells without cells were maintained as negative controls: four containing DMEM + 5% FBS + resazurin (1 mmol·L^–1), and four containing only DMEM + 5% FBS. After the 48-h incubation, the treatment medium was removed and replaced with DMEM + 5% FBS containing 10% resazurin solution (1 mmol·L^–1). Plates were incubated for an additional 6 h, and then absorbance was measured at 570 and 600 nm using a microplate reader. Dose–response curves were constructed using GraphPad Prism 8 software, and CC50 values were determined by nonlinear regression.

Series [2] relates to T. cruzi Y strain trypomastigote forms. Nature of the series: Anti-T. cruzi activity against trypomastigote forms. The settings on record: for EC50: read-out: Y strain T. cruzi EC50 Trypomastigote; for trypanosomicidal activity (parasite mortality): at 100 μmol·L^–1, trypomastigotes; for SI (selectivity index): mammalian cell CC50 versus trypomastigote EC50. The class given is cell-based. The procedure:
(§2) The T. cruzi Y strain was selected for this study due to its known partial sensitivity to benznidazole chemotherapy.
Trypomastigote forms of T. cruzi (2.5 × 10^5 parasites/well) were incubated in 96-well plates with serial dilutions of the hybrid compounds (100, 50, 25, and 12.5 μmol·L^–1) for 24 h at 37 °C in a humidified 5% CO2 atmosphere. Following incubation, parasite viability was assessed under an optical microscope by evaluating motility, and the number of live parasites was quantified using a Neubauer chamber. Untreated parasite cultures were maintained in parallel as negative controls. The mortality percentage was calculated by comparing the number of live parasites in treated wells to that of untreated controls. All experiments were conducted in triplicate with at least two technical replicates per concentration. EC50 values were determined by nonlinear regression using GraphPad Prism 8 and CompuSyn software (Biosoft, U.K.).

A short description of series [3]: Cell viability assay (resazurin), H9c2 cells. Format: cell-based. The note with it: rat, resazurin method, 48 h incubation, read-out: Cytotoxicity CC50 H9c2. The procedure: as §1
Series [4] concerns T. cruzi Y strain amastigote forms. Nature of the series: Anti-T. cruzi activity against intracellular amastigote forms in infected Vero or H9c2 cells. The settings on record: Vero or H9c2 cells infected with amastigote forms, 48 h of incubation, fixed concentration 50 μmol·L^–1. The class given is cell-based, Trypanosoma cruzi. The method, then:
as §2
Vero or H9c2 cells (7.5 × 10^3 cells/well) were seeded on sterile glass coverslips placed in 24-well plates and incubated for 24 h at 37 °C in 5% CO2 to allow cell adhesion. Following this period, cells were infected with trypomastigote forms of T. cruzi Y strain at a ratio of 20 parasites per cell. After 24 h of parasite-host interaction, noninternalized parasites were removed by washing with fresh medium, and the infected monolayers were incubated for 48 h with the hybrid compounds at a fixed concentration of 50 μmol·L^–1, following toxicity parameters. Infected but untreated cells were included as negative controls in all experiments. At the end of the treatment period, coverslips were washed with medium, fixed with methanol, and stained with Giemsa solution. After drying, the coverslips were mounted onto microscope slides using Entellan (Merck) and analyzed under a light microscope at 100× magnification. At least 200 cells were counted per coverslip, and only intracellular parasite forms with characteristic morphology were considered for analysis. The infection index was determined by the percentage of infected cells relative to the total number of cells analyzed. The inhibition percentage was calculated based on the reduction in infection in treated samples compared to the untreated control. Dose–response curves were constructed using GraphPad Prism 8 and CompuSyn (Biosoft, U.K.). All experiments were performed in triplicate, with at least two technical replicates per condition.

The test system of series [5] is Vero cells. Nature of the series: Cell viability assay (resazurin), Vero cells. The class given is cell-based. The settings on record: 48 h; 1400 to 175 μmol·L^–1. The procedure:
as §1

The mark [6] stands for this setting: Trypanosoma cruzi, 24 h, 24 h of incubation, Y strain.

As to `COc1cc(CC(O)Cn2cncn2)ccc1O` (racemic) [Compound 18, (±)-4-(2-Hydroxy-3-(1H-1,2,4-triazol-1-yl)propyl)-2-methoxyphenol], the CC50 at 48 h in series [1] and in series [3] was over 1300 µM each time. The values for the 50% effective concentration (EC50) in series [2] (setting [6]) and in series [4] (Trypanosoma cruzi) were over 100 µM and over 50 µM, respectively.

In the case of `COc1cc(CC(O)Cn2cncn2)cc([N+](=O)[O-])c1O` (racemic) [Compound 19, (±)-4-(2-Hydroxy-3-(1H-1,2,4-triazol-1-yl)propyl)-2-methoxy-6-nitrophenol], the CC50 at 48 h in series [1] and in series [3] was over 1300 µM throughout. The EC50 in series [2] (setting [6]) was over 100 µM; in series [4] (Trypanosoma cruzi), over 50 µM.

As to `COc1ccc(CC(O)Cn2cncn2)cc1OC` (racemic) [Compound 20, (±)-1-(3,4-Dimethoxyphenyl)-3-(1H-1,2,4-triazol-1-yl)propan-2-ol], the half-maximal cytotoxic concentration (CC50) at 48 h in series [1] is over 1400 µM; in series [3], over 1300 µM. Besides, the “cytotoxicity toward Vero cells (in words)” value in series [5] was “significantly higher cytotoxicity”. In addition, the EC50 in series [2] (setting [6]) is over 100 µM; in series [4] (Trypanosoma cruzi), over 50 µM.

On to `COc1cc(CC(O)Cn2cncn2)cc([N+](=O)[O-])c1OC` (racemic) [Compound 21, (±)-1-(3,4-Dimethoxy-5-nitrophenyl)-3-(1H-1,2,4-triazol-1-yl)propan-2-ol], for which the CC50 at 48 h in series [1] and in series [3] was over 1300 µM in each case. Also, the figures for the EC50 in series [2] (setting [6]) and in series [4] (Trypanosoma cruzi) were over 100 µM and over 50 µM, respectively.

`COc1cc(CC(O)Cn2cncn2)ccc1OCc1ccccc1` (racemic) [Compound 22, (±)-1-(4-(Benzyloxy)-3-methoxyphenyl)-3-(1H-1,2,4-triazol-1-yl)propan-2-ol]: the half-maximal cytotoxic concentration (CC50) at 48 h in series [1] and in series [3] was over 1300 µM in each case. The 50% effective concentration (EC50) in series [2] (setting [6]) is over 100 µM; in series [4] (Trypanosoma cruzi), over 50 µM.

Consider `COc1cc(CC(O)Cn2cncn2)cc([N+](=O)[O-])c1OCc1ccccc1` (racemic) [Compound 23, (±)-1-(4-(Benzyloxy)-3-methoxy-5-nitrophenyl)-3-(1H-1,2,4-triazol-1-yl)propan-2-ol], for which the CC50 at 48 h in series [1] and in series [3] was over 1300 µM throughout. Further, the EC50 in series [2] (setting [6]) was over 100 µM; in series [4] (Trypanosoma cruzi), over 50 µM. For the same compound, the “activity against trypomastigote forms (in words)” value in series [2] (Y strain, up to 100 μmol·L^–1) is “inactive”.

Consider `COc1cc(CC(O)Cn2ccnc2)ccc1O` (racemic) [Compound 24, (±)-4-(2-Hydroxy-3-(1H-imidazol-1-yl)propyl)-2-methoxyphenol], for which the cytotoxic concentration (CC50) at 48 h in series [1] and in series [3] was over 1300 µM throughout. The EC50 in series [2] (setting [6]) is over 100 µM; in series [4] (Trypanosoma cruzi) it was over 50 µM.

In the case of `COc1cc(CC(O)Cn2ccnc2)cc([N+](=O)[O-])c1O` (racemic) [Compound 25, (±)-4-(2-Hydroxy-3-(1H-imidazol-1-yl)propyl)-2-methoxy-6-nitrophenol], the results for the CC50 at 48 h in series [1] and in series [3] were 860 µM and over 1300 µM, respectively. The “cytotoxicity toward Vero cells (in words)” value in series [5] is “significantly higher cytotoxicity”. For the same compound, the EC50 in series [2] (setting [6]) is over 100 µM; in series [4] (Trypanosoma cruzi) it was over 50 µM.

Regarding `COc1ccc(CC(O)Cn2ccnc2)cc1OC` (racemic) [Compound 26, (±)-1-(3,4-Dimethoxyphenyl)-3-(1H-imidazol-1-yl)propan-2-ol], the CC50 at 48 h in series [1] and in series [3] was over 1300 µM each time. Moreover, the EC50 in series [2] (setting [6]) was over 100 µM; in series [4] (Trypanosoma cruzi), over 50 µM.

As to `COc1cc(CC(O)Cn2ccnc2)cc([N+](=O)[O-])c1OC` (racemic) [Compound 27, (±)-1-(3,4-Dimethoxy-5-nitrophenyl)-3-(1H-imidazol-1-yl)propan-2-ol], the 50% cytotoxic concentration (CC50) at 48 h in series [1] and in series [3] was over 1300 µM throughout. The concentration for a half-maximal effect (EC50) was over 100 µM in series [2] (setting [6]) and over 50 µM in series [4] (Trypanosoma cruzi).

For `COc1cc(CC(O)Cn2ccnc2)ccc1OCc1ccccc1` (racemic) [Compound 28, (±)-1-(4-(Benzyloxy)-3-methoxyphenyl)-3-(1H-imidazol-1-yl)propan-2-ol], the CC50 at 48 h in series [1] and in series [3] was over 1300 µM throughout. Also, the EC50 in series [2] (setting [6]) is over 100 µM; in series [4] (Trypanosoma cruzi), over 50 µM.

Regarding `COc1cc(CC(O)Cn2ccnc2)cc([N+](=O)[O-])c1OCc1ccccc1` (racemic) [Compound 29, (±)-1-(4-(Benzyloxy)-3-methoxy-5-nitrophenyl)-3-(1H-imidazol-1-yl)propan-2-ol], the 50% cytotoxic concentration (CC50) at 48 h in series [1] and in series [3] was over 1300 µM throughout. Moreover, the concentration for a half-maximal effect (EC50) was 26.5 µM in series [2] (24 h of incubation, Y strain) and over 50 µM in series [4] (Trypanosoma cruzi). The “trypanosomicidal activity (parasite mortality)” value in series [2] (24 h) was “approximately 99%”. Also, in series [2], the “SI (selectivity index)” value is over 49.

For `COc1cc(CC(O)Cn2ccnn2)ccc1O` (racemic) [Compound 30, (±)-4-(2-Hydroxy-3-(1H-1,2,3-triazol-1-yl)propyl)-2-methoxyphenol], the 50% cytotoxic concentration (CC50) at 48 h in series [1] and in series [3] was over 1300 µM in each case. The concentration for a half-maximal effect (EC50) in series [2] (setting [6]) was over 100 µM; in series [4] (Trypanosoma cruzi), over 50 µM.

Take `COc1cc(CC(O)Cn2ccnn2)cc([N+](=O)[O-])c1O` (racemic) [Compound 31, (±)-4-(2-Hydroxy-3-(1H-1,2,3-triazol-1-yl)propyl)-2-methoxy-6-nitrophenol]: the CC50 at 48 h in series [1] and in series [3] was over 1300 µM each time. The EC50 in series [2] (setting [6]) was over 100 µM; in series [4] (Trypanosoma cruzi), over 50 µM.

As to `COc1ccc(CC(O)Cn2ccnn2)cc1OC` (racemic) [Compound 32, (±)-1-(3,4-Dimethoxyphenyl)-3-(1H-1,2,3-triazol-1-yl)propan-2-ol], the CC50 at 48 h in series [1] and in series [3] was over 1300 µM throughout. The results for the EC50 in series [2] (setting [6]) and in series [4] (Trypanosoma cruzi) were over 100 µM and over 50 µM, respectively.

For the compound `COc1cc(CC(O)Cn2ccnn2)cc([N+](=O)[O-])c1OC` (racemic) [Compound 33, (±)-1-(3,4-Dimethoxy-5-nitrophenyl)-3-(1H-1,2,3-triazol-1-yl)propan-2-ol], the CC50 at 48 h in series [1] is 1190 µM; in series [3] it was over 1300 µM. The “cytotoxicity toward Vero cells (in words)” value in series [5] is “significantly higher cytotoxicity”. Besides, the EC50 in series [2] (setting [6]) was over 100 µM; in series [4] (Trypanosoma cruzi) it was over 50 µM.

Regarding `COc1cc(CC(O)Cn2ccnn2)cc([N+](=O)[O-])c1OCc1ccccc1` (racemic) [Compound 34, (±)-1-(4-(Benzyloxy)-3-methoxy-5-nitrophenyl)-3-(1H-1,2,3-triazol-1-yl)propan-2-ol], the CC50 at 48 h in series [1] and in series [3] was over 1300 µM throughout. For the same compound, the EC50 in series [2] (setting [6]) is 38.1 µM; in series [4] (Trypanosoma cruzi) it was over 50 µM. The “SI (selectivity index)” value in series [2] is recorded as over 34.

`COc1cc(CC(O)Cn2ccnc2)cc([N+](=O)[O-])c1OCc1ccccc1` (single isomer, unassigned; (+)) [(+)-29]: the EC50 is 28.8 µM in series [2] (24 h of incubation, Y strain); about 29 µM in series [2] (setting [6]); over 50 µM in series [4]. Also, in series [2] (Trypanosoma cruzi, 24 h, read-out: trypanosomicidal activity (parasite mortality)), the mortality at 100 µM is about 99%.

For the compound `COc1cc(CC(O)Cn2ccnc2)cc([N+](=O)[O-])c1OCc1ccccc1` (single isomer, unassigned; (-)) [(-)-29], the concentration for a half-maximal effect (EC50) in series [2] (24 h of incubation, Y strain, listed as (−)-29) is about 29 µM; in series [2] (24 h of incubation, Y strain), 29.9 µM; in series [4] it was over 50 µM. For the same compound, in series [2] (24 h), the “trypanosomicidal activity (parasite mortality)” value is recorded as “approximately 99%”.

On to `C=CCc1ccc(O)c(OC)c1` [Eug, eugenol], for which, in series [2] (Trypanosoma cruzi, 24 h), the EC50 came out at 500 µM.
